Experimental findings from ChEMBL document CHEMBL2073948, “Interactions of the human multidrug resistance proteins MRP1 and MRP2 with organic anions” (Mol Pharmacol, 2000) are described below.

Holding throughout (type): functional, cell membranes, Membrane vesicle
Data set [1] addresses T1, ATP-binding cassette sub-family C member 2 (Homo sapiens, UniProt Q92887). Briefly: TP_TRANSPORTER: uptake in membrane vesicles from MRP2-expressing Sf9 cells.
In data set [2] the target is T2, Multidrug resistance-associated protein 1 (Homo sapiens, UniProt P33527). Briefly: TP_TRANSPORTER: uptake in membrane vesicles from MRP1-expressing Sf9 cells.
The target of data set [3] is T1, ATP-binding cassette sub-family C member 2. The experiment in a line: TP_TRANSPORTER: inhibition of NEM-GS uptake (NEM-GS: 4 uM, Furosemide: 5000 uM) in membrane vesicles from MRP2-expressing Sf9 cells. As to conditions: sf9, 5000 µM.
Data set [4] deals with T2, Multidrug resistance-associated protein 1. The experiment in a line: TP_TRANSPORTER: inhibition of NEM-GS uptake (NEM-GS: 4 uM, Probenecid: <1000 uM) in membrane vesicles from MRP1-expressing Sf9 cells.
Data set [5] concerns the target T1, ATP-binding cassette sub-family C member 2. Briefly: TP_TRANSPORTER: inhibition of NEM-GS uptake (NEM-GS: 4 uM, Probenecid: <1000 uM) in membrane vesicles from MRP2-expressing Sf9 cells.

T1 sequence (Q92887 whole entry): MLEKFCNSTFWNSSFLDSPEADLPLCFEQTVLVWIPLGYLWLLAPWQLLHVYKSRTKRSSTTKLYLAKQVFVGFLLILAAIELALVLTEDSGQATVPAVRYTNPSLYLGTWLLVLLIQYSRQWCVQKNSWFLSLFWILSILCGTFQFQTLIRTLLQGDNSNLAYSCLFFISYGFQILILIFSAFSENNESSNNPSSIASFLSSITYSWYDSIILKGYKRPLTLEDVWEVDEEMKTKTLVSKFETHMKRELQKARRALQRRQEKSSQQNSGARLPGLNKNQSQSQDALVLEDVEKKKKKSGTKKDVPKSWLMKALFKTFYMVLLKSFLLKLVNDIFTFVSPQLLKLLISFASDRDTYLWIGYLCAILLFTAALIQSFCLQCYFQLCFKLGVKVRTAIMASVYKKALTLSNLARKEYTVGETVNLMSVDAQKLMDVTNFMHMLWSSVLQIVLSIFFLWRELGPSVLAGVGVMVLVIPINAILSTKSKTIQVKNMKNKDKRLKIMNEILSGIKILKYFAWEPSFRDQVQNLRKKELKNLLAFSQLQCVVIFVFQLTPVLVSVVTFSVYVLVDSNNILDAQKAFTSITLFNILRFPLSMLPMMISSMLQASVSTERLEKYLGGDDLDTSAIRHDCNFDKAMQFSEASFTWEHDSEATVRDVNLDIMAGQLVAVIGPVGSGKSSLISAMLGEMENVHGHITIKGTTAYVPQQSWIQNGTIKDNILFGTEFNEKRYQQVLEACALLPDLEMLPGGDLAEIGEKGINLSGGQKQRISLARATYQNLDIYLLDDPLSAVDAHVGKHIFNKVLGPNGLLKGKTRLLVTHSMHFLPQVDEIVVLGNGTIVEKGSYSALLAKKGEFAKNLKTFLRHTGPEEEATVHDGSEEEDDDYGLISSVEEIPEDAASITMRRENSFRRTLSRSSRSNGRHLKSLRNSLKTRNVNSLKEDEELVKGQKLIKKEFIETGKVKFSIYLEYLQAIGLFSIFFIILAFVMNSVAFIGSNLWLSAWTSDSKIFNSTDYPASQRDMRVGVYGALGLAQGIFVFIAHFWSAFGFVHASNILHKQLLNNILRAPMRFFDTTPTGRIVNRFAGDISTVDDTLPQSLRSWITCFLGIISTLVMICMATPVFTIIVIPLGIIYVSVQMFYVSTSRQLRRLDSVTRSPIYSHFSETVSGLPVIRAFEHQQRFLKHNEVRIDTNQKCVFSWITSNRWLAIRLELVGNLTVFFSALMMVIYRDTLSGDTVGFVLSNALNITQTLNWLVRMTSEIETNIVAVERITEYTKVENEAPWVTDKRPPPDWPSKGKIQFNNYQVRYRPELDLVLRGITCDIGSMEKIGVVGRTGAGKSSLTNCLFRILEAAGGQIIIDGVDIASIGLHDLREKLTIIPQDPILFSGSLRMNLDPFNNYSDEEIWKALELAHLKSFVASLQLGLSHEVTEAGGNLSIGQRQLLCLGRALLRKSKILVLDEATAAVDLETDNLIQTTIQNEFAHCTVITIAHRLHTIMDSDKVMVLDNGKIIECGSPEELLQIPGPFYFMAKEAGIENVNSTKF
T2 sequence (P33527 whole entry): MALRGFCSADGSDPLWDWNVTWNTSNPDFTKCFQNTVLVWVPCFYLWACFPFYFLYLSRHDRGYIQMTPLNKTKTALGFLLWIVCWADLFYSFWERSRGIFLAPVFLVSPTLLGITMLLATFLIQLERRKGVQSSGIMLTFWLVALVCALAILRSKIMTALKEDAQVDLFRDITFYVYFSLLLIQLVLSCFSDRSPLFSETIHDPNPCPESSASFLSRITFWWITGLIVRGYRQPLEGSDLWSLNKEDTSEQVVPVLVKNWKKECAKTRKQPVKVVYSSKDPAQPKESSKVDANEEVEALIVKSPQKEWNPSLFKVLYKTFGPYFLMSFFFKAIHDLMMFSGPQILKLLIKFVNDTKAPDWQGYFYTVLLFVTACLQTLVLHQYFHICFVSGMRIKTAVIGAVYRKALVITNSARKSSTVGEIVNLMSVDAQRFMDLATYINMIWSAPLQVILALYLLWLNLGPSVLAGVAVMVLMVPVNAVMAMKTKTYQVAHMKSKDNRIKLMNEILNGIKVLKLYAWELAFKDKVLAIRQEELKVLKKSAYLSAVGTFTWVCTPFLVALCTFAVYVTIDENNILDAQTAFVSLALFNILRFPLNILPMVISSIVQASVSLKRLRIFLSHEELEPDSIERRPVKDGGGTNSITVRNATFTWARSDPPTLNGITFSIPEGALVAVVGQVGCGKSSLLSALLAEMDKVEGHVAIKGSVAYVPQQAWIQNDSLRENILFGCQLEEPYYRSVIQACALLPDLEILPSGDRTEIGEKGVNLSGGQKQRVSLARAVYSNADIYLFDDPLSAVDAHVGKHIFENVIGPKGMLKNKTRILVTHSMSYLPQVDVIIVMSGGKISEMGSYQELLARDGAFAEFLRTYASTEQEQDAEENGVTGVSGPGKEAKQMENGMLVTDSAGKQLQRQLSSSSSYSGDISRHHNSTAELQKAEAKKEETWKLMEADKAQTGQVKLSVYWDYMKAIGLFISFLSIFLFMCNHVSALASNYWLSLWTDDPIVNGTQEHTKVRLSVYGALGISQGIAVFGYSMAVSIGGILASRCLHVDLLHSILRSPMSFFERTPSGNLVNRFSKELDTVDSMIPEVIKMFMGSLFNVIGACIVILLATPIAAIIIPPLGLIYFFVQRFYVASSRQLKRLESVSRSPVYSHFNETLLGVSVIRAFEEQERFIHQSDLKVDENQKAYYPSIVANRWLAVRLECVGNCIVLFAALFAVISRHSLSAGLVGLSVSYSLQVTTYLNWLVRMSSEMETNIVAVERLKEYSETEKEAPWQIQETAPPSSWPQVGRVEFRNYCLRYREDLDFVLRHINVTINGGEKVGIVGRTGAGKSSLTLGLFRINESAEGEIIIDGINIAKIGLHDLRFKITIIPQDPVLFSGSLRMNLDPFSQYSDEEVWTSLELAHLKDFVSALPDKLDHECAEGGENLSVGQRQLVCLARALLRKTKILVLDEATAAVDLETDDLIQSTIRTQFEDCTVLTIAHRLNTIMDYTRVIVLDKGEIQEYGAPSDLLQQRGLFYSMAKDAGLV

In the case of `NC(CCC(=O)NC(CNCC(=O)O)CSCCN1C(=O)C=CC1=O)C(=O)O` (stereo not given), the K1/2 in data set [1] is 2500 µM; in data set [2], 200 µM. Turning to `NS(=O)(=O)c1cc(C(=O)O)c(NCc2ccco2)cc1Cl` [FUROSEMIDE], the Activity entry in data set [3] was “inhibitor [+]”.

With `CCCN(CCC)S(=O)(=O)c1ccc(C(=O)O)cc1` [PROBENECID], the Activity entry in data set [4] and in data set [5] was “inhibitor [+]” in each case.
